# From patent US11241421B2, “Combination therapies for treating cancer” (UNIVERSITY OF VIRGINIA PATENT FOUNDATION, priority 2016, dated 2022)
# Columns and labels:
# [1] = relative to the methoxy compound; cited from earlier work
# [2] = tested on: CBFβ-SMMHC fusion protein; conditions: cited from earlier work
# [3] = tested on: ME-1 cell line, a leukemia cell line with inv(16); conditions: cited from earlier work
# [4] = tested on: Cbfb^+/MYH11; Nras^+/G12D leukemic cells; assay: Leukemia transplantation studies in mice (inv(16) AML model); type: in vivo; conditions: for white blood cell count: peripheral blood, doxorubicin 2 mg/kg single dose, AI-10-49 200 mg/kg daily intraperitoneally for 10 days, FIG. 1; for Lin-Sca1-c-Kit+ cell population (number of cells): spleen, flow cytometry, same dosing, FIG. 4
# Experimental: The experiments with animals were performed in accordance with a protocol reviewed and approved by the University of Massachusetts Institutional Animal Care and Use Committee. An efficient mouse model of inv(16)AML was used. (L. Xue, et al., 2014.) Leukemic cells carrying Cbfb^+/MYH11 and Nras^+/G12D oncogenic alleles were generated in CD45.2 C57BL/6 mice, as previously described (Illendula, et al., 2015.) Briefly, 2×10^3 Cbfb^+/MYH11; Nras^+/G12D leukemic cells were transplanted into each of 16 sub-lethally irradiated six to eight-week-old CD45.1 C57BL/6 female mice. Five days post-transplant, mice were placed in 4 groups with 4 mice in each group: DMSO (control, 50 μL), Dox, AI-10-49, and Dox+AI-10-49. Both Dox groups received a single dose of doxorubicin (2 mg/kg) 5 days post-transplant. Both AI-10-49 groups received a daily dose of AI-10-49 (200 mg/kg) in DMSO injected intraperitoneally for 10 days. After this 10-day period, all mice were sacrificed and analyzed for leukemia burden via several measures. Mice were kept under observation by more than one person to determine the median leukemia latency, and were euthanized once signs of disease were detected, including reduced motility and grooming activity, hunched back, pale paws (anemia), and hypothermia. At time of euthanasia, peripheral blood and spleen cells were extracted and analyzed as previously described (Y. H. Kuo, et al., 2006.). Leukemia burden was analyzed in peripheral blood by measuring the total white blood cell counts, the number of cells in the c-kit(+)-gated population, spleen weight and cell number, and spleen Lin-Sca1-c-kit+ population. For Kit+ and Lin-Sca-Kit+ results, flow cytometry was used to measure the effect.
# [5] = target: T1, CBFβ (Homo sapiens, UniProt Q13951); conditions: cited from earlier work
# T1 sequence (Q13951 1-182): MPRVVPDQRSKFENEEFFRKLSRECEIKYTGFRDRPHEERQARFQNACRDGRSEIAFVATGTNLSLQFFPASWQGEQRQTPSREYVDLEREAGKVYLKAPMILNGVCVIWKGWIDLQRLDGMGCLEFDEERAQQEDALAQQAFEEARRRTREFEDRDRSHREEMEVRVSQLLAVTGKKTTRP
# [6] = compared with doxorubicin; cited from earlier work
# [7] = compared with daunorubicin; cited from earlier work
# [8] = compared with daunorubicin; cited from earlier work; remark: listed apart in the source
structure (smiles),measurement,setting,value
"FC(F)(F)Oc1ccc2[nH]c(-c3ccccn3)nc2c1 [A-10-47, 2-(pyridin-2-yl)-5-(trifluoromethoxy)-1H-benzo[d]imidazole]",metabolic stability,[1],enhanced metabolic stability
"COc1ccc2[nH]c(-c3ccccn3)nc2c1 [AI-4-57, 5-methoxy-2-(pyridin-2-yl)-1H-benzo[d]imidazole]",binding to the CBFβ-SMMHC fusion protein,[2],binds to the CBFβ portion of the CBFβ-SMMHC fusion protein
same,inhibition of CBFβ-SMMHC binding to the Runt domain of RUNX proteins,[2],inhibits its binding to the Runt domain of RUNX proteins
FC(F)(F)Oc1ccc2[nH]c(-c3ccc(OCCOCCOc4ccc(-c5nc6cc(OC(F)(F)F)ccc6[nH]5)nc4)cn3)nc2c1 [AI-10-49],cell death,[3],induced cell death
same,inhibition of CBFβ-SMMHC binding to the Runt domain of RUNX proteins,[2],potent and CBFβ-SMMHC specific
same,white blood cell count,[4],reduced
same,Lin-Sca1-c-Kit+ cell population (number of cells),[4],modest effect
same,effect on CBFβ function,[5],minimal effect
"COc1cccc2c1C(=O)c1c(O)c3c(c(O)c1C2=O)C[C@@](O)(C(=O)CO)C[C@@H]3O[C@H]1C[C@H](N)[C@H](O)[C@H](C)O1 [Dox, doxorubicin]",white blood cell count,[4],reduced
same,Lin-Sca1-c-Kit+ cell population (number of cells),[4],no effect
COc1cccc2c1C(=O)c1c(O)c3c(c(O)c1C2=O)C[C@@](O)(C(=O)CO)C[C@@H]3O[C@H]1C[C@H](N)[C@@H](O)[C@H](C)O1 [Epirubicin],half-life,[6],longer
same,volume of distribution,[6],increased
CC(=O)[C@]1(O)Cc2c(O)c3c(c(O)c2[C@@H](O[C@H]2C[C@H](N)[C@H](O)[C@H](C)O2)C1)C(=O)c1ccccc1C3=O [Idarubicin],cellular uptake,[7],higher
same,lipophilicity,[8],more lipophilic
